The assay is filed under the species Rattus norvegicus. The assay is described as follows: Compound was evaluated for its ability to enhance the release of acetylcholine in vitro by using [3H]choline in rat brain slice superfusion system. Format: functional.

As for `O=C1c2cccc3cccc(c23)C1(Cc1ccccn1)Cc1ccccn1`, the Release is 40%.
On to `O=C1N(c2ccccc2)c2ccccc2C1(Cc1cccnc1)Cc1cccnc1`, for which the Release turned out to be 38%.
Then `O=C1CCc2ccccc2C1(Cc1ccccn1)Cc1ccccn1`, with 25%.
Then `C=C1c2cccc3cccc(c23)C1(Cc1cccnc1)Cc1cccnc1`, with 21%; and `c1ccc2c(c1)Oc1ccccc1C2(Cc1ccncc1)Cc1ccncc1`, with 91%; and `OC1c2cccc3cccc(c23)C1(Cc1ccccn1)Cc1ccccn1` (stereo unspecified), with 53%.
Then `O=C1N(c2ccccc2)c2ccccc2C1(Cc1ccccn1)Cc1ccccn1`, with 22%; and `c1ccc(CC2(Cc3ccccn3)c3ccccc3Oc3ccccc32)nc1`, with 24%.
With `c1cncc(CC2(Cc3cccnc3)c3ccccc3Oc3ccccc32)c1`, the Release came to 59%.
Then `OC1c2cccc3cccc(c23)C1(Cc1ccncc1)Cc1ccncc1` (stereo unspecified), with 15%; and `O=C1c2cccc3cccc(c23)C1(Cc1cccnc1)Cc1cccnc1`, with 7%.
Then `C=C1c2cccc3cccc(c23)C1(Cc1ccncc1)Cc1ccncc1`, with 97%; and `OC1c2cccc3cccc(c23)C1(Cc1cccnc1)Cc1cccnc1` (stereo unspecified), with 29%; and `C=C1c2cccc3cccc(c23)C1(Cc1ccccn1)Cc1ccccn1`, with 25%.
Next, `O=C1CCc2ccccc2C1(Cc1ccncc1)Cc1ccncc1`: 36%; `O=C1CCc2ccccc2C1(Cc1cccnc1)Cc1cccnc1`: 11%; `O=C1c2cccc3cccc(c23)C1(Cc1ccncc1)Cc1ccncc1`: 70%.
In the case of `c1ccc2c(c1)Sc1ccccc1C2(Cc1ccncc1)Cc1ccncc1`, the Release stood at 42%.
Consider `c1cncc(CC2(Cc3cccnc3)c3ccccc3Sc3ccccc32)c1`, for which the Release is recorded as 79%.
Next, `c1ccc(CC2(Cc3ccccn3)c3ccccc3Sc3ccccc32)nc1`: 47%; `O=C1N(c2ccccc2)c2ccccc2C1(Cc1ccncc1)Cc1ccncc1` [LINOPIRDINE]: 100%.

For the origin of these results see ChEMBL document CHEMBL1126445, “Acetylcholine-releasing agents as cognition enhancers. Structure-activity relationships of pyridinyl pendant groups on selected core structures” (1992).
